Source: patent US20120302573A1, “METHODS OF INHIBITING PRO MATRIX METALLOPROTEINASE ACTIVATION” (priority 2011, published 2012)
Structures can show the parent of a compound that is named as a salt.

How the values were obtained:
[1] = target: T1, proMMP9(20-445;ΔFnII) (SEQ ID NO:6) (Homo sapiens, UniProt P14780, DEL216-390); assay: ThermoFluor binding assay with proMMP9(20-445;ΔFnII)
T1 construct: amino acid pairs including: 29-215/391-444, 67-215/391-444, and 20-215/391-445, respectively; start methionine (N); made in house; host or cells: E. coli BL21(DE3) RIL
T1 sequence (P14780 with tags, fused parts or gaps DEL216-390): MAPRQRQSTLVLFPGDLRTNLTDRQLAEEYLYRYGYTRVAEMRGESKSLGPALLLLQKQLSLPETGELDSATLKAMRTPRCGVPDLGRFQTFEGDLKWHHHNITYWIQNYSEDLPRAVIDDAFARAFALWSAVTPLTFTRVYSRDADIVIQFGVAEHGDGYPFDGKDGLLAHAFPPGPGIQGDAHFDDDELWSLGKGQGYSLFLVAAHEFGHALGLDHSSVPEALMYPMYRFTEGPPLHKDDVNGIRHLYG
Procedure: (§1) The experiments were carried out using instruments available from Johnson & Johnson Pharmaceutical Research & Development, LLC. TF dye used in all experiments was […] (1,8-ANS) (Invitrogen: A-47).
(§2) Columns 12 and 24 were used as DMSO reference and contained no compound. […] Following compound dispense, protein and dye solutions were added to achieve the final assay volume of 3 μL.
(§3) Assay plates were robotically loaded onto a thermostatically controlled PCR-type thermal block and then heated from 40 to 90° C. at a ramp-rate of 1° C./min for all experiments. Fluorescence was measured by continuous illumination with UV light (Hamamatsu LC6) supplied via fiber optics and filtered through a band-pass filter (380-400 nm; >6 OD cutoff). Fluorescence emission of the entire 384-well plate was detected by measuring light intensity using a CCD camera (Sensys, Roper Scientific) filtered to detect 500±25 nm, resulting in simultaneous and independent readings of all 384 wells.
(§4) Thermodynamic parameters necessary for fitting compound binding for each proMMP were estimated by differential scanning calorimetry (DSC) and from ThermoFluor® data. The heat capacity of unfolding for each protein was estimated from the molecular weight and from ThermoFluor® dosing data.
The protein sample preparations included a desalting buffer exchange step via a PD-10 gravity column (GE Healthcare).

[2] = target: T2, proMMP9(67-444;ΔFnII) (SEQ ID NO:5) (Homo sapiens, UniProt P14780, DEL216-390); assay: ThermoFluor binding assay with proMMP9(67-444;ΔFnII)
T2 construct: amino acid pairs including: 29-215/391-444, 67-215/391-444, and 20-215/391-445, respectively; start methionine (N); made in house; host or cells: E. coli BL21(DE3) RIL
T2 sequence (P14780 with tags, fused parts or gaps DEL216-390): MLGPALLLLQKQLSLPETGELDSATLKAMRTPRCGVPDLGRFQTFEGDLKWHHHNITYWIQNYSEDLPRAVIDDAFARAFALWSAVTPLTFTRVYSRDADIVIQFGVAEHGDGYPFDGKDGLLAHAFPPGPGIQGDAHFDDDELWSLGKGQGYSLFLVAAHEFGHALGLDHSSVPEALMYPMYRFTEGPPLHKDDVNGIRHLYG
Procedure: as §1, §2, §3, §4
The protein sample preparations had to include a desalting buffer exchange step via a PD-10 gravity column (GE Healthcare).

[3] = target: full-length proMMP9(1-707) activation by catalytic MMP3 (Homo sapiens, UniProt P14780, R574P); assay: ProMMP9/MMP3 DQ Gelatin Activation Assay;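 also: readout is fluorescence of quenched fluorescein gelatin cut by activated MMP9, 30 min activation at 37 °C, inhibition relative to DMSO-only controls with EDTA as blank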; assay type: biochemical; set-up: made in house; host or cells: COS-1 (proMMP9); E. coli (MMP3); conditions: proMMP9 from COS-1 cells; read-out: ProMMP9/MMP3 DQ gel, IC50
Sequence of full-length proMMP9(1-707) activation by catalytic MMP3 (P14780 20-707 R574P): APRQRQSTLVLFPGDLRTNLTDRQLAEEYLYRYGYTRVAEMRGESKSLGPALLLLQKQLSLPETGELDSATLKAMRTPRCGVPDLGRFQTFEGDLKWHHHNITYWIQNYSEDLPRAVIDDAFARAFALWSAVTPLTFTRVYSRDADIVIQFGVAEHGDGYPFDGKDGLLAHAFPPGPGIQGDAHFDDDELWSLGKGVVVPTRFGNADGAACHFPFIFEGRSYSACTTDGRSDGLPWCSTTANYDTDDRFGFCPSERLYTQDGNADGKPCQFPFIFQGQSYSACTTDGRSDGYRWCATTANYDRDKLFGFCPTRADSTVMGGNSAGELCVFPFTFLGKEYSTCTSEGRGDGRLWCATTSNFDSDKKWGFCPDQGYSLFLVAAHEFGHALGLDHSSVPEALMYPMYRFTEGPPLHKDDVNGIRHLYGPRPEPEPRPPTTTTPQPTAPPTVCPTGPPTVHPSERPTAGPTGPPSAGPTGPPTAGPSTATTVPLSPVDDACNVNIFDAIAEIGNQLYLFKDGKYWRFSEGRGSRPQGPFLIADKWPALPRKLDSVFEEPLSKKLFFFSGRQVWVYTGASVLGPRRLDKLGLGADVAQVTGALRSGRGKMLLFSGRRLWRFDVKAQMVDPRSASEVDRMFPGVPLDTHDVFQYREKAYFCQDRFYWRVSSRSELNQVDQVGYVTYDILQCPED
Procedure: Compounds were assessed for inhibition of proMMP9 activation by catalytic MMP3 using a quenched fluorescein gelatin substrate (DQ gelatin, Invitrogen D12054) that fluoresces upon cleavage by activated MMP9. The assay buffer employed was 50 mM Hepes, pH 7.5, 10 mM CaCl2, 0.05% Brij-35. DMSO was included at a final concentration of 0.2%, arising from the test compound addition. […] Test compounds in DMSO were diluted 250-fold in assay buffer at 4× the final concentration. The reaction volume was 12 μL, and all reactions were conducted in triplicate. […] The plate was sealed and incubated for 30 min at 37° C. […] Immediately following the 30 min incubation, 4 μL of 40 μg/ml DQ gelatin substrate was added (freshly diluted in assay buffer), and incubated for 10 min at room temperature. […] Reactivity of residual MMP3 towards DQ gelatin was minimal under these conditions. Percent inhibition of test compounds were determined from suitable positive (DMSO only in assay buffer) and negative (EDTA added prior to reaction initiation) controls. Plots of % inhibition vs. test compound concentration were fit to a four-parameter logistics equation (GraphPad Prism® software) for determination of IC50.

| Compound | Kd [1] [µM] | Kd [2] [µM] | IC50 [3] [µM] |
| --- | --- | --- | --- |
| Cc1nc(C)c(-c2csc(Nc3cccc(C(N)=O)c3)n2)s1 [Example 9, 3-(2′,4′-Dimethyl-[4,5′]bithiazolyl-2-ylamino)-benzamide] | 19 | > 81 |  |
| CC(=O)Nc1nc(C)c(-c2csc(Nc3ccccc3OCC3CC3)n2)s1 [Example 19, N-[2-(2-Cyclopropylmethoxy-phenylamino)-4′-methyl-[4,5′]bithiazolyl-2′-yl]-acetamide.TFA] | > 52 | 3.86 |  |
| COc1ccc(Nc2nc(-c3sc(NC(C)=O)nc3C)cs2)c(OC)c1 [Example 23, N-[2-(2,4-Dimethoxy-phenylamino)-4′-methyl-[4,5′]bithiazolyl-2′-yl]-acetamide.TFA] | > 35 | 5.53 | 26.2 |
| c1cncc(-c2csc(Nc3ccccc3OCc3cccs3)n2)c1 [Example 24, (4-Pyridin-3-yl-thiazol-2-yl)-[2-(thiophen-2-ylmethoxy)-phenyl]-amine.TFA] | 0.37 | > 38 | > 20 |
| CCCOc1ccccc1Nc1nc(-c2cccnc2)cs1 [Example 25, (2-Propoxy-phenyl)-(4-pyridin-3-yl-thiazol-2-yl)-amine] | 12.5 | 16.3 | > 20 |
| COc1ccccc1Nc1nc(-c2cnccc2C)cs1 [Example 29, (2-Methoxy-phenyl)-[4-(4-methyl-pyridin-3-yl)-thiazol-2-yl]-amine.TFA] |  |  | 14.4 |
| CC(=O)Nc1nc(C)c(-c2csc(Nc3ccccc3OC(F)(F)F)n2)s1 [Example 31, N-[4′-Methyl-2-(2-trifluoromethoxy-phenylamino)-[4,5′]bithiazolyl-2′-yl]-acetamide.HCl] | 3.34 | 0.645 | 3.3 |
| CC(=O)Nc1nc(C)c(-c2csc(Nc3ccccc3C(F)(F)F)n2)s1 [Example 32, N-[4′-Methyl-2-(2-trifluoromethyl-phenylamino)-[4,5′]bithiazolyl-2′-yl]-acetamide.TFA] | > 9.2 | 9.06 | > 20 |
| CSc1ccccc1Nc1nc(-c2sc(NC(C)=O)nc2C)cs1 [Example 33, N-[4′-Methyl-2-(2-methylsulfanyl-phenylamino)-[4,5′]bithiazolyl-2′-yl]-acetamide.HCl] | 3.75 | 0.695 | 2.9 |
| CNc1nc(C)c(-c2csc(Nc3ccccc3OC)n2)s1 [Example 35, N^2-(2-Methoxy-phenyl)-4′,N^2′-dimethyl-[4,5′]bithiazolyl-2,2′-diamine] | 10.3 | 3.92 | 7 |
| COc1ccccc1Nc1nc(-c2sc(N(C)C(C)=O)nc2C)cs1 [Example 36, N-[2-(2-Methoxy-phenylamino)-4′-methyl-[4,5′]bithiazolyl-2′-yl]-N-methyl-acetamide.TFA] | > 11 | > 11 | 1.7 |
| CCNc1nc(C)c(-c2csc(Nc3ccccc3OC)n2)s1 [Example 38] | > 8.3 | > 8.3 | 9.6 |
| CC(=O)Nc1nc(C)c(-c2csc(Nc3ccccc3Cl)n2)s1 [Example 39, N-[2-(2-Chloro-phenylamino)-4′-methyl-[4,5′]bithiazolyl-2′-yl]-acetamide.HCl] | 6.35 | 2.49 | 17.1 |
| CC(=O)Nc1nc(C)c(-c2csc(Nc3ccccc3F)n2)s1 [Example 40, N-[2-(2-Fluoro-phenylamino)-4′-methyl-[4,5′]bithiazolyl-2′-yl]acetamide.TFA] | > 18 | 16.3 | > 20 |
| COc1ccc(Nc2nc(-c3sc(N)nc3C)cs2)c(OC)c1 [Example 48, N^2-(2,4-Dimethoxy-phenyl)-4′-methyl-[4,5′]bithiazolyl-2,2′-diamine] | 17.5 | 4.73 |  |
| COc1ccccc1Nc1nc(C2(C)CC3(CC(C)OC3=O)C(=O)O2)cs1 (stereo not shown) [Example 49, 3-[2-(2-Methoxy-phenylamino)-thiazol-4-yl]-3,8-dimethyl-2,7-dioxa-spiro[4.4]nonane-1,6-dione] | > 17 | 8.7 | 5.7 |
| COc1ccccc1Nc1nc(-c2sc(NC(=O)c3ccccc3)nc2C)cs1 [Example 50, N-[2-(2-Methoxy-phenylamino)-4′-methyl-[4,5′]bithiazolyl-2′-yl]-benzamide] | > 14 | 4.05 | 21.2 |
| COc1ccc(OC)c(Nc2nc(-c3c(C)nc4ccccn34)cs2)c1 [Example 51, (2,5-Dimethoxy-phenyl)-[4-(2-methyl-imidazo[1,2-a]pyridin-3-yl)-thiazol-2-yl]-amine] | > 16 | > 15 | 10.1 |
| COc1ccc(OC)c(Nc2nc(-c3cccnc3)cs2)c1 [Example 54, (2,5-Dimethoxy-phenyl)-(4-pyridin-3-yl-thiazol-2-yl)-amine] | > 65 | 17.9 | 16.1 |
| COc1ccc(Cl)cc1Nc1nc(-c2cccnc2)cs1 [Example 56, (5-Chloro-2-methoxy-phenyl)-(4-pyridin-3-yl-thiazol-2-yl)-amine] | > 70 | 14.6 | > 20 |
| CC(=O)Nc1nc(C)c(-c2csc(Nc3ccccc3C)n2)s1 [Example 63, N-(4′-Methyl-2-o-tolylamino-[4,5′]bithiazolyl-2′-yl)-acetamide] | 19.6 | 5.13 | 28.2 |
| CCOc1ccccc1Nc1nc(-c2sc(NC(C)=O)nc2C)cs1 [Example 66, N-[2-(2-Ethoxy-phenylamino)-4′-methyl-[4,5′]bithiazolyl-2′-yl]-acetamide] | > 6.1 | > 6.1 | 1.9 |
| COc1ccccc1Nc1nc(C2(C)CC3(CC(C)(C)OC3=O)C(=O)O2)cs1 (stereo not shown) [Example 69, 3-[2-(2-Methoxy-phenylamino)-thiazol-4-yl]-3,8,8-trimethyl-2,7-dioxa-spiro[4.4]nonane-1,6-dione] | > 15 | > 15 | 11.2 |
| CCOc1ccccc1Nc1nc(-c2cnc3ncccn23)cs1 [Example 71, (2-Ethoxy-phenyl)-(4-imidazo[1,2-a]pyrimidin-3-yl-thiazol-2-yl)-amine] | 11.7 | 6.56 | 6.9 |
| (5-Chloro-2-methoxy-phenyl)-(4-imidazo[1,2-a]pyrazin-3-yl-thiazol-2-yl)-amine [Example 72] | 6.53 | > 58 | 3.1 |
